For one data set, the system named is WT. The data set can be described thus: Inhibition of NNRTI resistant mutants, WT. The note with it: Human immunodeficiency virus 1, read-out: Inhibition of NNRTI resistant mutants (EC50) WT. The data set is classed as cell-based, HIV. How it is done: (§1) Select compounds are assayed against key NNRTI resistant mutants.
Another data set addresses T1, HIV-1 integrase (Human immunodeficiency virus type 1 group M subtype B, UniProt P04585).
T1 construct: An HIV-1 integrase strand transfer assay
The data set can be described thus: HIV-1 integrase strand transfer assay (Screen 2). The format is biochemical. An excerpt:
Screen 2: An HIV-1 integrase strand transfer assay, (see Wang et al, J. Biomol. Screen. (2005) 10: 456), that identifies anti-HIV activity due to inhibition of HIV integrase.

Data set [1] concerns NNRTI resistant mutant Y181C. The data set can be described thus: Inhibition of NNRTI resistant mutants, Y181C. The data set is classed as cell-based, HIV. The note with it: Human immunodeficiency virus 1, read-out: Inhibition of NNRTI resistant mutants (EC50) Y181C. How it is done:
as §1

In data set [2] the test system is NNRTI resistant mutant Y188L. The data set can be described thus: Inhibition of NNRTI resistant mutants, Y188L. The data set is classed as cell-based, HIV. Conditions: Human immunodeficiency virus 1, read-out: Inhibition of NNRTI resistant mutants (EC50) Y188L. The procedure: as §1
The test system of data set [3] is NNRTI resistant mutant L100I. The data set can be described thus: Inhibition of NNRTI resistant mutants, L100I. The format is cell-based, HIV. The note with it: Human immunodeficiency virus 1, read-out: Inhibition of NNRTI resistant mutants (EC50) L100I. The procedure:
as §1

For data set [4], the system named is NNRTI resistant mutant K103N. The data set can be described thus: Inhibition of NNRTI resistant mutants, K103N. Conditions: Human immunodeficiency virus 1, read-out: Inhibition of NNRTI resistant mutants (EC50) K103N. The format is cell-based, HIV. The procedure:
as §1

A further data set relates to HIV. Description: cell-based HIV luciferase reporter infection assay (Screen 1). The note with it: for EC50: Human immunodeficiency virus 1, read-out: HIV Activity EC50. The procedure:
HIV therapeutic agents inhibit propagation of HIV in cells, and as such cell-based assays of HIV antiviral activity have been developed. For example, Pauwels et al, Nature (1990) 343: 470-4 describe incubating HIV infected cells with test compounds and subsequently determining cell viability via colorimetric methods, to give an EC50 for the inhibition of HIV-1 replication.
Screen 1: A high throughput cell-based HIV luciferase reporter infection assay (see He et al, Bioorg. Med. Chem. Lett. (2006) 16) that identifies inhibitors of early HIV infection events. The results are shown in Table 2 below, expressed as EC50 (μM), the molar concentration that produces 50% of the maximal possible response.
For orientation: Reporter assays use an easily measured gene product as a stand-in for the process of interest.

A short description of data set [5]: cytotoxicity assay (Screen 3). The note with it: human, HE 293T cells. The data set is classed as cell-based. An excerpt:
Screen 3: A cytotoxicity assay, to determine inhibitory activity against HE 293T cells.

Setting [6] is: strand transfer assay, read-out: Integrase Activity IC50.

Like-named read-outs stand apart in the source and are kept apart here.

The term EC50 denotes the concentration at which the effect is half-maximal. The IC50 is the concentration at which inhibition is half-maximal. As a reminder, the CC50 is the concentration giving 50% cytotoxicity. A high value points to lower toxicity to the cells. For the molecule `COC(=O)c1ccc(C(=O)NCc2cccc([N+](=O)[O-])c2)c(O)c1O` [Compound 11, methyl 4-(3-nitrobenzylcarbamoyl)-2,3-dihydroxybenzoate], the concentration giving a half-maximal response (EC50) in the data set on WT was below 50 nM; in data set [1] it was 50 to 500 nM; in data set [2], below 50 nM; in data set [3] it was below 50 nM; in data set [4] it was below 50 nM; in the data set with HIV, below 50 nM. In addition, the IC50 at HIV-1 integrase (setting [6]) is below 50 nM. In data set [5], this molecule had a 50% cytotoxic concentration (CC50) of 500 to 2000 nM.

On to `O=C(NCc1ccccc1)c1cccc(O)c1O` [Compound 2, N-benzyl-2,3-dihydroxybenzamide], for which, in the data set on HIV, the EC50 is above 2000 nM. Also, the CC50 in data set [5] is above 2000 nM.

On HIV-1 integrase, `COC(=O)c1ccc(C(=O)NCc2ccccc2)c(O)c1O` [Compound 1, methyl 4-(benzylcarbamoyl)-2,3-dihydroxybenzoate] came in with a half-inhibitory concentration (IC50) of 50 to 500 nM. In addition, the EC50 in the data set with HIV lay within 50 to 500 nM. Also, the CC50 in data set [5] is above 2000 nM.

On to `Cc1ccnc2c1NC(=O)c1cccnc1N2C1CC1` [NVP, Nevirapine, reference compound], for which the EC50 with WT was 50 to 500 nM; in data set [1], above 2000 nM; in data set [2], above 2000 nM; in data set [3], 50 to 500 nM; in data set [4] it was above 2000 nM; in the data set on HIV, 50 to 500 nM. In data set [5], this molecule came in with a 50% cytotoxic concentration (CC50) above 2000 nM.

As for `COC(=O)c1ccc(C(=O)NCc2ccccn2)c(O)c1O` [Compound 16, methyl 4-((pyridin-2-yl)methylcarbamoyl)-2,3-dihydroxybenzoate], the EC50 (with WT; in data set [1]; in data set [2]; in data set [3]; in data set [4]; in the data set on HIV) was 50 to 500 nM throughout. Moreover, the IC50 on HIV-1 integrase (setting [6]) was in the range of 50 to 500 nM. This molecule came in with a CC50 in data set [5] above 2000 nM.

Consider `COC(=O)c1ccc(C(=O)Nc2ccccc2)c(O)c1O` [Compound 20, methyl 4-(phenylcarbamoyl)-2,3-dihydroxybenzoate], for which the EC50 (in the data set with WT; in data set [1]; in data set [2]; in data set [3]; in data set [4]; in the data set on HIV) was below 50 nM each time. The IC50 at HIV-1 integrase (setting [6]) was below 50 nM. Also, the half-maximal cytotoxic concentration (CC50) in data set [5] was in the range of 500 to 2000 nM.

As for `COC(=O)c1ccc(C(=O)NCc2cccc(C(F)(F)F)c2)c(O)c1O` [Compound 14, methyl 4-(3-(trifluoromethyl)benzylcarbamoyl)-2,3-dihydroxybenzoate], the IC50 at HIV-1 integrase (setting [6]) lay in the range of 50 to 500 nM. Further, the EC50 in the data set with HIV is 500 to 2000 nM. In data set [5], this molecule yielded a 50% cytotoxic concentration (CC50) of 500 to 2000 nM.

For `COC(=O)c1ccc(C(=O)NCc2ccc([N+](=O)[O-])cc2)c(O)c1O` [Compound 12, methyl 4-(4-nitrobenzylcarbamoyl)-2,3-dihydroxybenzoate], on HIV-1 integrase (setting [6]), the IC50 is 50 to 500 nM. The EC50 in the data set on HIV lay in the range of 50 to 500 nM. Besides, in data set [5], the CC50 was in the range of 500 to 2000 nM.

Turning to `COC(=O)c1ccc(C(=O)NCc2ccccc2OC)c(O)c1O` [Compound 7, methyl 4-(2-methoxybenzylcarbamoyl)-2,3-dihydroxybenzoate], the EC50 in the data set on WT was below 50 nM; in data set [1], 50 to 500 nM; in data set [2], 50 to 500 nM; in data set [3], below 50 nM; in data set [4], below 50 nM; in the data set on HIV it was below 50 nM. Further, the IC50 on HIV-1 integrase (setting [6]) was below 50 nM. In data set [5], this molecule showed a CC50 of 500 to 2000 nM.

Regarding `O=C(NCc1ccccc1)c1ccccc1O` [Compound 4, N-benzyl-2-hydroxybenzamide], the half-maximal effective concentration (EC50) in the data set with HIV was above 2000 nM. Also, the CC50 in data set [5] was above 2000 nM.

As to `COC(=O)c1ccc(C(=O)N(C)Cc2ccccc2)c(O)c1O` [Compound 19, methyl 4-(N-benzyl-N-methylcarbamoyl)-2,3-dihydroxybenzoate], at HIV-1 integrase (setting [6]), the concentration for half-maximal inhibition (IC50) was above 2000 nM. In addition, the 50% effective concentration (EC50) in the data set with HIV was above 2000 nM. In data set [5], the CC50 is above 2000 nM.

Take `O=C(NCc1ccccc1)c1cccnc1O` [Compound 6, N-benzyl-2-hydroxypyridine-3-carboxamide]: the EC50 in the data set with HIV is above 2000 nM. The molecule also returned a 50% cytotoxic concentration (CC50) in data set [5] above 2000 nM.

In the case of `CC(C)Oc1ccc(Cc2ccccc2)cc1C(=O)CC(=O)C(=O)O` [DKA, reference compound], the concentration for a half-maximal effect (EC50) with WT is 50 to 500 nM; in data set [1], 50 to 500 nM; in data set [2], 50 to 500 nM; in data set [3], 50 to 500 nM; in data set [4], below 50 nM; in the data set with HIV, 50 to 500 nM. In addition, the IC50 at HIV-1 integrase (setting [6]) was in the range of 50 to 500 nM. This molecule had a CC50 in data set [5] above 2000 nM.

On to `COC(=O)c1ccc(C(=O)NCc2ccc(OC)cc2)c(O)c1O` [Compound 9, methyl 4-(4-methoxybenzylcarbamoyl)-2,3-dihydroxybenzoate], for which the IC50 at HIV-1 integrase (setting [6]) is below 50 nM. Besides, the half-maximal effective concentration (EC50) with HIV lay within 500 to 2000 nM. This molecule also displayed a CC50 in data set [5] above 2000 nM.

As to `COC(=O)c1ccc(C(=O)NCc2ccncc2)c(O)c1O` [Compound 18, methyl 4-((pyridin-4-yl)methylcarbamoyl)-2,3-dihydroxybenzoate], at HIV-1 integrase (setting [6]), the concentration for half-maximal inhibition (IC50) was in the range of 50 to 500 nM. Moreover, in the data set on HIV, the concentration for a half-maximal effect (EC50) was 50 to 500 nM. This molecule also gave a half-maximal cytotoxic concentration (CC50) in data set [5] above 2000 nM.

As for `COC(=O)c1ccc(C(=O)NCc2cccc(OC)c2)c(O)c1O` [Compound 8, methyl 4-(3-methoxybenzylcarbamoyl)-2,3-dihydroxybenzoate], the 50% effective concentration (EC50) (in the data set with WT; in data set [1]; in data set [2]; in data set [3]; in data set [4]; in the data set on HIV) was 50 to 500 nM in each case. Moreover, on HIV-1 integrase (setting [6]), the IC50 was below 50 nM. For the same molecule, the CC50 in data set [5] was above 2000 nM.

In the case of `COC(=O)c1ccc(C(=O)NCc2ccccc2[N+](=O)[O-])c(O)c1O` [Compound 10, methyl 4-(2-nitrobenzylcarbamoyl)-2,3-dihydroxybenzoate], the half-maximal effective concentration (EC50) in the data set with WT is 50 to 500 nM; in data set [1], 50 to 500 nM; in data set [2], 50 to 500 nM; in data set [3] it was below 50 nM; in data set [4], below 50 nM; in the data set on HIV, 50 to 500 nM. Further, the half-maximal inhibitory concentration (IC50) at HIV-1 integrase (setting [6]) was below 50 nM. In data set [5], this molecule gave a 50% cytotoxic concentration (CC50) of 500 to 2000 nM.

In the case of `O=C(NCc1ccccc1)c1cccc(O)n1` [Compound 5, N-benzyl-6-hydroxypyridine-2-carboxamide], in the data set on HIV, the 50% effective concentration (EC50) was above 2000 nM. In addition, the CC50 in data set [5] was above 2000 nM.

With `COC(=O)c1ccc(C(=O)NCc2ccc(C(F)(F)F)cc2)c(O)c1O` [Compound 15, methyl 4-(4-(trifluoromethyl)benzylcarbamoyl)-2,3-dihydroxybenzoate], the IC50 on HIV-1 integrase (setting [6]) was 500 to 2000 nM. Also, in the data set with HIV, the EC50 was 500 to 2000 nM. The half-maximal cytotoxic concentration (CC50) in data set [5] fell in the range of 500 to 2000 nM.

Consider `COC(=O)c1ccc(C(=O)NCc2cccnc2)c(O)c1O` [Compound 17, methyl 4-((pyridin-3-yl)methylcarbamoyl)-2,3-dihydroxybenzoate], for which the IC50 on HIV-1 integrase (setting [6]) was 50 to 500 nM. In addition, the 50% effective concentration (EC50) with HIV lay within 50 to 500 nM. Further, the CC50 in data set [5] is above 2000 nM.

`COC(=O)c1ccc(C(=O)NCc2ccccc2C(F)(F)F)c(O)c1O` [Compound 13, methyl 4-(2-(trifluoromethyl)benzylcarbamoyl)-2,3-dihydroxybenzoate]: the half-inhibitory concentration (IC50) on HIV-1 integrase (setting [6]) lay within 50 to 500 nM. Further, the EC50 with HIV lay within 50 to 500 nM. Further, in data set [5], the CC50 fell in the range of 500 to 2000 nM.

For `COC(=O)c1ccc2c(=O)n(Cc3ccccc3)c(=O)oc2c1O` [Compound 21, 3-benzyl-8-hydroxy-2,4-dioxo-3,4-dihydro-2H-benzo[e][1,3]oxazine-7-carboxylic acid methyl ester], the EC50 (in the data set with WT; in data set [1]; in data set [2]; in data set [3]; in data set [4]; with HIV) was 50 to 500 nM each time. Further, the IC50 against HIV-1 integrase was in the range of 50 to 500 nM. Further, the “activity in the enzymatic assay” value on HIV-1 integrase (result in words) is given as “maintains activity”. For the same molecule, the “activity in the cellular assay” value in the data set on HIV (result in words) is on record as “maintains activity”. In addition, the cytotoxic concentration (CC50) in data set [5] is above 2000 nM.

Consider `O=C(NCc1ccccc1)c1cccc(O)c1` [Compound 3, N-benzyl-3-hydroxybenzamide], for which the EC50 in the data set with HIV was above 2000 nM. Besides, the CC50 in data set [5] was above 2000 nM.
